Tests used:
Human μ-opioid (MOP) = molecular target: T1, Human μ-opioid (MOP) (Homo sapiens, UniProt P35372); assay: Radioligand binding, human μ-opioid (MOP) membranes, FlashPlate, [3H]-Naloxone; conditions: compound at 10 μM; for A7: inhibition of radioligand binding, human μ-opioid (MOP): [3H]-Naloxone
T1 construct: purchased Perkin Elmer Biosignal
In short: (§1)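 Cloned human receptor membranes were coated onto FlashPlate wells and incubated with radioligand and compound (added from a 0.5 mM DMSO daughter plate) for 1 hour at room temperature in the dark. Scintillation counting gave percent inhibition, with DMSO defining total and reference ligand defining non-specific binding.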

Human Melanocortin (MC3) = molecular target: T2, Human Melanocortin (MC3) (Homo sapiens, UniProt P41968); assay: Radioligand binding, human melanocortin MC3 membranes, FlashPlate, [125I]-NDP-αMSH; conditions: compound at 10 μM; for A3: inhibition of radioligand binding, human melanocortin (MC3): [125I]-NDP-αMSH
T2 construct: purchased Perkin Elmer Biosignal
In short: as §1

[1] = molecular target: T3, Human neuropeptide Y (NPY-Y1) (Homo sapiens, UniProt P25929); assay: Radioligand binding, human neuropeptide Y NPY-Y1 membranes, FlashPlate, [125I]-PYY; conditions: compound at 10 μM; for A9: inhibition of radioligand binding, human neuropeptide Y (NPY-Y1): [125I]-PYY
T3 construct: purchased Perkin Elmer Biosignal
T3 sequence (P25929 1-384): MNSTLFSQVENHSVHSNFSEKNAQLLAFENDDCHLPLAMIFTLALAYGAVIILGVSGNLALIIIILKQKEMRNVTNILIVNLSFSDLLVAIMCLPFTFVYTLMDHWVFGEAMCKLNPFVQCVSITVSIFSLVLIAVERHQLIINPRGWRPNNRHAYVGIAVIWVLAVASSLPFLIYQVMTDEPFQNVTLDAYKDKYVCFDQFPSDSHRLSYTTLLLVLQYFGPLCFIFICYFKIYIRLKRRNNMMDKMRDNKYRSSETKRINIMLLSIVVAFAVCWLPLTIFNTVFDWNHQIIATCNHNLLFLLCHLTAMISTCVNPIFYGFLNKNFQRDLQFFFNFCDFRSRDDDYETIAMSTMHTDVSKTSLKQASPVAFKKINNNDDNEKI
In short: as §1

Human Melanocortin (MC4) = molecular target: T4, Human Melanocortin (MC4) (Homo sapiens, UniProt P32245); assay: Radioligand binding, human melanocortin MC4 membranes, FlashPlate, [125I]-NDP-αMSH; conditions: compound at 10 μM; for A4: inhibition of radioligand binding, human melanocortin (MC4): [125I]-NDP-αMSH
T4 construct: purchased Perkin Elmer Biosignal
In short: as §1

Human neurokinin (NK1) = molecular target: T5, Human neurokinin (NK1) (Homo sapiens, UniProt P25103); assay: Radioligand binding, human neurokinin NK1 membranes, filtration, [125I]-Substance P; conditions: compound at 10 μM; for A8: inhibition of radioligand binding, human neurokinin (NK1): [125I]-Substance P
T5 construct: purchased Perkin Elmer Biosignal
In short: (§2)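 Percent inhibition of radioligand binding measured on recombinant human membranes: NK1 with [125I]-Substance P, KOP with [3H]-Diprenorphine. Incubation 1 h at room temperature, then harvest onto 0.3% PEI-soaked filters, cold Tris-HCl pH 7.4 washes and scintillation counting; non-specific binding from reference ligand wells.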

Human opioid (ORL1) = molecular target: T6, Human opioid (ORL1) (Homo sapiens, UniProt P41146); assay: Radioligand binding, human opioid ORL1 membranes, FlashPlate, [125I]-Nociceptin; conditions: compound at 10 μM; for A10: inhibition of radioligand binding, human opioid (ORL1): [125I]-Nociceptin
T6 construct: purchased Perkin Elmer Biosignal
In short: as §1

[2] = molecular target: T7, Human melanin-concentrating hormone (MCH1) (Homo sapiens, UniProt Q99705); assay: Radioligand binding, human melanin-concentrating hormone MCH1 membranes, FlashPlate, [125I]-S36057; conditions: compound at 10 μM; for A6: inhibition of radioligand binding, human melanin-concentrating hormone (MCH1): [125I]-S36057
T7 construct: purchased Perkin Elmer Biosignal
In short: as §1

Human melanocortin (MC5) = molecular target: T8, Human melanocortin (MC5) (Homo sapiens, UniProt P33032); assay: Radioligand binding, human melanocortin MC5 membranes, FlashPlate, [125I]-NDP-αMSH; conditions: compound at 10 μM; for A5: inhibition of radioligand binding, human melanocortin (MC5): [125I]-NDP-αMSH
T8 construct: purchased Perkin Elmer Biosignal
In short: as §1

Human δ-opioid (DOP) = molecular target: T9, Human δ-opioid (DOP) (Homo sapiens, UniProt P41143); assay: Radioligand binding, human δ-opioid (DOP) membranes, FlashPlate, [3H]-Bremazocine; conditions: compound at 10 μM; for A1: inhibition of radioligand binding, human δ-opioid (DOP): [3H]-Bremazocine
T9 construct: purchased Perkin Elmer Biosignal
In short: as §1

Human κ-Opioid (KOP) = molecular target: T10, Human κ-Opioid (KOP) (Homo sapiens, UniProt P41145); assay: Radioligand binding, human κ-opioid (KOP) membranes, filtration, [3H]-Diprenorphine; conditions: compound at 10 μM; for A2: inhibition of radioligand binding, human κ-opioid (KOP): [3H]-Diprenorphine
T10 construct: purchased Perkin Elmer Biosignal
In short: as §2

Mouse urotensin (mUR2) = molecular target: T11, Mouse urotensin (mUR2) (Mus musculus, UniProt Q8VIH9); assay: Radioligand binding, mouse urotensin mUR2 membranes, FlashPlate, [125I]-Urotensin II; conditions: compound at 10 μM; for A11: inhibition of radioligand binding, mouse urotensin (mUR2): [125I]-Urotensin II
T11 construct: purchased Perkin Elmer Biosignal
T11 sequence (Q8VIH9 1-385): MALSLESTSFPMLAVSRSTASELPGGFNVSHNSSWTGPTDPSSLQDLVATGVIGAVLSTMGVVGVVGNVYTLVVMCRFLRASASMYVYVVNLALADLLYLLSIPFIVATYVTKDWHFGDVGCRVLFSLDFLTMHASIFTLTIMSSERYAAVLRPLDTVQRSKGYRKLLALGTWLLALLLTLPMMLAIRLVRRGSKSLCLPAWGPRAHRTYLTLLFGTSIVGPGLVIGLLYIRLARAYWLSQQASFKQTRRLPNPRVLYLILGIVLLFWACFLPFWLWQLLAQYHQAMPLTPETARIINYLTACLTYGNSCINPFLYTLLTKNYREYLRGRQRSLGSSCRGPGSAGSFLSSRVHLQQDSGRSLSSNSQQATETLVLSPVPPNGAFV
In short: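 Cloned mouse urotensin (mUR2) receptor membranes from Perkin Elmer Biosignal were immobilized in FlashPlate microplates using a proprietary coating. Each well got 19.5 μl buffer, then 0.5 μl of DMSO, reference ligand, or compound. Adding 5 μl of [125I]-Urotensin II, diluted to 5× final concentration in binding buffer, started binding. Plates were sealed with TopSeal-A and incubated 1 hour at room temperature in the dark. Wells were counted for 30 seconds each on a TopCount after a 60-second delay, and percentage inhibition was calculated.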

T8 sequence (P33032 whole entry): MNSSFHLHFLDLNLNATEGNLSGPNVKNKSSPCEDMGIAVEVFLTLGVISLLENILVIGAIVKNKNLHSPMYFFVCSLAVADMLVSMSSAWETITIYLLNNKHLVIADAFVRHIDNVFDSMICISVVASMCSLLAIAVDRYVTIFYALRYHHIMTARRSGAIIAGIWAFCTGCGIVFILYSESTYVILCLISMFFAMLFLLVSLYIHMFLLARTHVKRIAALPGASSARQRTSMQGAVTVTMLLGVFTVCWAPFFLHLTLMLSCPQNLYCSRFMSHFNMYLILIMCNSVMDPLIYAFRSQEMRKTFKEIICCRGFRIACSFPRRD
T5 sequence (P25103 whole entry): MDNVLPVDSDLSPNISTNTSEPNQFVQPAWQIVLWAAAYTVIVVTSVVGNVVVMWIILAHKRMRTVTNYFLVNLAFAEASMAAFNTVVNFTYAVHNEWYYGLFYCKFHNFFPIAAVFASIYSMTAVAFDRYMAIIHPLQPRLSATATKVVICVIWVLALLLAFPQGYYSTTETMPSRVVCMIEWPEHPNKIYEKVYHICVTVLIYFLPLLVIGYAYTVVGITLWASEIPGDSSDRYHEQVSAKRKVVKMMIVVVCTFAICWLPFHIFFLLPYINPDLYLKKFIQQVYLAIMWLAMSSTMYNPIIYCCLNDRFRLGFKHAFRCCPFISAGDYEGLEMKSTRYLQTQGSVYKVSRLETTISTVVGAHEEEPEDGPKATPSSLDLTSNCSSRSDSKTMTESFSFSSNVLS
T6 sequence (P41146 whole entry): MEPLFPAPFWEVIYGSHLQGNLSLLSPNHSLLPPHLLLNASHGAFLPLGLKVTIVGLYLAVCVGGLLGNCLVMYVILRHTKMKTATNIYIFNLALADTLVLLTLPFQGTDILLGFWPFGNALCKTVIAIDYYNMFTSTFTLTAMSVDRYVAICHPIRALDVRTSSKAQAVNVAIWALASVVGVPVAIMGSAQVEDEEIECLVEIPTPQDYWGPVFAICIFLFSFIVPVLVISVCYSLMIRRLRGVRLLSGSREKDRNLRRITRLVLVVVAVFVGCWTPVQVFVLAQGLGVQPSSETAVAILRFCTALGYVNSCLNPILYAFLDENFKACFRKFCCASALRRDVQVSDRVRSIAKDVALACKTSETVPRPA
T1 sequence (P35372 whole entry): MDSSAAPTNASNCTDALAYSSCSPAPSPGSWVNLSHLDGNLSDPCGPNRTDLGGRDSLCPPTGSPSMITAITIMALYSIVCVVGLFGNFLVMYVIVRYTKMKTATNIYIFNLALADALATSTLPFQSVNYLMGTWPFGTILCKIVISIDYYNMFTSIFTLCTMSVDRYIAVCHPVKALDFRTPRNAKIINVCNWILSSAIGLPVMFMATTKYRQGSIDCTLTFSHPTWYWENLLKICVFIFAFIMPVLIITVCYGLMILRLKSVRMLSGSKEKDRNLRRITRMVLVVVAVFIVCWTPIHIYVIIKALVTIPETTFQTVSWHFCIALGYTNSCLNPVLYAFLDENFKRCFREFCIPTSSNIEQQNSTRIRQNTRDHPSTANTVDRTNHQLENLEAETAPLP
T4 sequence (P32245 whole entry): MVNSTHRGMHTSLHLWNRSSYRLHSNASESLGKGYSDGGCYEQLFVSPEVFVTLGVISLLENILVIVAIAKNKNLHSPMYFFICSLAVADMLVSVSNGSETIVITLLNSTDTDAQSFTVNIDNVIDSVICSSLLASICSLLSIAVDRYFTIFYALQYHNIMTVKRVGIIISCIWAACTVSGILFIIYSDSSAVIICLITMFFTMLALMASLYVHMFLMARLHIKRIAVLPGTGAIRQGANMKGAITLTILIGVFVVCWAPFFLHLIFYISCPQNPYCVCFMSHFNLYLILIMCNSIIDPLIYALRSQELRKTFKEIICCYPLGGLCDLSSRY
T7 sequence (Q99705 whole entry): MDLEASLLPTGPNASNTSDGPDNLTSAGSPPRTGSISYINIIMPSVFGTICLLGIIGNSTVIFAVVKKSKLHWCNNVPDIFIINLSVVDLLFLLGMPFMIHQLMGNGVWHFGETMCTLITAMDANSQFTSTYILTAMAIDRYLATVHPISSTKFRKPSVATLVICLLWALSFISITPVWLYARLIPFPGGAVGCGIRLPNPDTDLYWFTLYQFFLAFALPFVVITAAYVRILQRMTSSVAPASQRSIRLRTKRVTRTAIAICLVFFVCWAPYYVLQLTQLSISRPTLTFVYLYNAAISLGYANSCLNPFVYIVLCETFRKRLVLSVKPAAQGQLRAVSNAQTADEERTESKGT
T10 sequence (P41145 whole entry): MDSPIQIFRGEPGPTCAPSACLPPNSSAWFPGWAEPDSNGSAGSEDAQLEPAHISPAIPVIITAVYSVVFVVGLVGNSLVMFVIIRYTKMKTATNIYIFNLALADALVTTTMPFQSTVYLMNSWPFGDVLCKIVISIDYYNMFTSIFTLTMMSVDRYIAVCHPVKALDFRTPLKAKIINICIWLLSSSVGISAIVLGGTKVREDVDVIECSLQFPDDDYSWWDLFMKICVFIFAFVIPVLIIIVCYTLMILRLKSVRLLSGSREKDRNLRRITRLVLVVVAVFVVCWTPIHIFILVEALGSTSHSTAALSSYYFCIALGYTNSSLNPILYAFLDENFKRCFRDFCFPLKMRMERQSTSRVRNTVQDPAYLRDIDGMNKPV
T9 sequence (P41143 whole entry): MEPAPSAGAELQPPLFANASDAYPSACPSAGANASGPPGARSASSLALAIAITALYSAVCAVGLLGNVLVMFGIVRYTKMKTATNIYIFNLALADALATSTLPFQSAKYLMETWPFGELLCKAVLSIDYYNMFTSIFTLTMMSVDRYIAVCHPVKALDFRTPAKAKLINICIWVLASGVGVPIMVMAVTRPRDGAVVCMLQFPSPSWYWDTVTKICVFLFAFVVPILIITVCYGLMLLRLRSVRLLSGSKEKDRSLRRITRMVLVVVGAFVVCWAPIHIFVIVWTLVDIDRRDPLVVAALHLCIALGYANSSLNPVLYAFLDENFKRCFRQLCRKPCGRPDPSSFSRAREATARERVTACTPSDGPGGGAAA
T2 sequence (P41968 whole entry): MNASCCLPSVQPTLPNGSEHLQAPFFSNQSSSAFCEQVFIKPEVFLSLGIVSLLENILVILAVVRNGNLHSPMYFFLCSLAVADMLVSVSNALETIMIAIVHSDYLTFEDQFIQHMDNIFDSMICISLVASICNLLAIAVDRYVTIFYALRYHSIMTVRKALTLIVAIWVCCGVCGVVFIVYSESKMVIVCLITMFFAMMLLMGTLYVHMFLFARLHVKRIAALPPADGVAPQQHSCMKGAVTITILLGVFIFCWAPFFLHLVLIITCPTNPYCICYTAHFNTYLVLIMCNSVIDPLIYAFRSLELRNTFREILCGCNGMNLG

CSC1O[C@H](COCc2ccc3ccccc3c2)[C@@H](O)[C@@H](OCc2ccc(-c3ccccc3)cc2)[C@H]1NC(=O)CCCNC(=N)N (stereo partly drawn) [compound 300]
A7: inhibition of radioligand binding, human μ-opioid (MOP) (Human μ-opioid (MOP)): − (“−” indicates less than 50% inhibition at 10 μM) | A3: inhibition of radioligand binding, human melanocortin (MC3) (Human Melanocortin (MC3)): − (“−” indicates less than 50% inhibition at 10 μM) | A9: inhibition of radioligand binding, human neuropeptide Y (NPY-Y1) [1]: − (“−” indicates less than 50% inhibition at 10 μM) | A4: inhibition of radioligand binding, human melanocortin (MC4) (Human Melanocortin (MC4)): − (“−” indicates less than 50% inhibition at 10 μM) | A8: inhibition of radioligand binding, human neurokinin (NK1) (Human neurokinin (NK1)): + (“+” indicates greater than 50% inhibition at 10 μM) | A10: inhibition of radioligand binding, human opioid (ORL1) (Human opioid (ORL1)): − (“−” indicates less than 50% inhibition at 10 μM) | A6: inhibition of radioligand binding, human melanin-concentrating hormone (MCH1) [2]: − (“−” indicates less than 50% inhibition at 10 μM) | A5: inhibition of radioligand binding, human melanocortin (MC5) (Human melanocortin (MC5)): + (“+” indicates greater than 50% inhibition at 10 μM) | A1: inhibition of radioligand binding, human δ-opioid (DOP) (Human δ-opioid (DOP)): − (“−” indicates less than 50% inhibition at 10 μM) | A2: inhibition of radioligand binding, human κ-opioid (KOP) (Human κ-Opioid (KOP)): − (“−” indicates less than 50% inhibition at 10 μM) | A11: inhibition of radioligand binding, mouse urotensin (mUR2) (Mouse urotensin (mUR2)): − (“−” indicates less than 50% inhibition at 10 μM)

COC[C@H]1OC(OCc2ccccc2)[C@H](NC(=O)CNC(=N)N)[C@@H](OCc2ccc(Cl)cc2)[C@@H]1O (stereo partly drawn) [compound 27]
A7 radioligand binding inhibition (Human μ-opioid (MOP); human μ-opioid (MOP) membranes): − (“−” indicates less than 50% inhibition at 10 μM) | A3 radioligand binding inhibition (Human Melanocortin (MC3); human melanocortin MC3 membranes): − (“−” indicates less than 50% inhibition at 10 μM) | A9 radioligand binding inhibition ([1]; human NPY-Y1 membranes): − (“−” indicates less than 50% inhibition at 10 μM) | A4 radioligand binding inhibition (Human Melanocortin (MC4); human melanocortin MC4 membranes): − (“−” indicates less than 50% inhibition at 10 μM) | A8 radioligand binding inhibition (Human neurokinin (NK1); human neurokinin NK1 membranes): − (“−” indicates less than 50% inhibition at 10 μM) | A10 radioligand binding inhibition (Human opioid (ORL1); human ORL1 membranes): − (“−” indicates less than 50% inhibition at 10 μM) | A6 radioligand binding inhibition ([2]; human MCH1 membranes): − (“−” indicates less than 50% inhibition at 10 μM) | A5 radioligand binding inhibition (Human melanocortin (MC5); human melanocortin MC5 membranes): + (“+” indicates greater than 50% inhibition at 10 μM) | A1 radioligand binding inhibition (Human δ-opioid (DOP); human δ-opioid (DOP) membranes): − (“−” indicates less than 50% inhibition at 10 μM) | A2 radioligand binding inhibition (Human κ-Opioid (KOP); human κ-opioid (KOP) membranes): − (“−” indicates less than 50% inhibition at 10 μM) | A11 radioligand binding inhibition (Mouse urotensin (mUR2); mouse urotensin mUR2 membranes): − (“−” indicates less than 50% inhibition at 10 μM)

NCCCC(=O)NC1C(OCc2ccc(Cl)cc2)OC(COCc2ccc3ccccc3c2)C(O)C1OCc1ccccc1 (single isomer, unassigned) [compound 502]
A7: inhibition of radioligand binding, human μ-opioid (MOP) (Human μ-opioid (MOP); 10 µM): + (“+” indicates greater than 50% inhibition at 10 μM) | A3: inhibition of radioligand binding, human melanocortin (MC3) (Human Melanocortin (MC3); 10 µM): − (“−” indicates less than 50% inhibition at 10 μM) | A9: inhibition of radioligand binding, human neuropeptide Y (NPY-Y1) [1]: − (“−” indicates less than 50% inhibition at 10 μM) | A4: inhibition of radioligand binding, human melanocortin (MC4) (Human Melanocortin (MC4)): + (“+” indicates greater than 50% inhibition at 10 μM) | A8: inhibition of radioligand binding, human neurokinin (NK1) (Human neurokinin (NK1)): + (“+” indicates greater than 50% inhibition at 10 μM) | A10: inhibition of radioligand binding, human opioid (ORL1) (Human opioid (ORL1)): + (“+” indicates greater than 50% inhibition at 10 μM) | A6: inhibition of radioligand binding, human melanin-concentrating hormone (MCH1) ([2]; 10 µM): + (“+” indicates greater than 50% inhibition at 10 μM) | A5: inhibition of radioligand binding, human melanocortin (MC5) (Human melanocortin (MC5)): + (“+” indicates greater than 50% inhibition at 10 μM) | A1: inhibition of radioligand binding, human δ-opioid (DOP) (Human δ-opioid (DOP)): − (“−” indicates less than 50% inhibition at 10 μM) | A2: inhibition of radioligand binding, human κ-opioid (KOP) (Human κ-Opioid (KOP)): − (“−” indicates less than 50% inhibition at 10 μM) | A11: inhibition of radioligand binding, mouse urotensin (mUR2) (Mouse urotensin (mUR2)): − (“−” indicates less than 50% inhibition at 10 μM)

From US20080009418A1, “Selective Inhibitors” (Alchemia LTD., priority 2004, published 2008)
